The record followed here is PubChem BioAssay (NCI).

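Assay format: 96-well plates, 48-hour exposure. Abbreviation: GI50, concentration required for 50% inhibition of growth. Definition used: TGI = concentration required for complete inhibition of growth.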

Test systems include PC-3 prostate; TK-10 renal; NCI-H522 lung; LOX IMVI melanoma; SF-268 CNS; SW-620 colon; OVCAR-4 ovarian; SK-MEL-28 melanoma; UACC-257 melanoma; MDA-MB-435.
Holding throughout (experiment): DTP human tumour cell line panel, 48 h

Broadly, the GI50 is the concentration at which growth is held to half of that of the control. Usually TGI stands for the concentration giving total growth inhibition. A lower TGI goes with more potent growth arrest.

Regarding `COc1ccc(Cn2cc3c(c2)-c2oncc2CC3)cc1OC`, the GI50 in the assay with PC-3 prostate is 0.395 µM; with TK-10 renal, 0.453 µM; with NCI-H522 lung, 0.146 µM; in the assay with LOX IMVI melanoma, 0.366 µM; in the assay with SF-268 CNS, 0.43 µM; with SW-620 colon, 0.153 µM. The GI50 in the assay with OVCAR-4 ovarian was 0.643 µM; in the assay on SK-MEL-28 melanoma, 0.326 µM; in the assay on UACC-257 melanoma it was 1.69 µM; in the assay with MDA-MB-435, 0.0774 µM. Also, the TGI in the assay with PC-3 prostate is more than 50 µM; in the assay on TK-10 renal it was more than 50 µM; in the assay on NCI-H522 lung, 0.677 µM; in the assay with LOX IMVI melanoma, more than 50 µM; in the assay on SF-268 CNS it was more than 50 µM; in the assay on SW-620 colon, more than 50 µM. Moreover, the TGI is more than 50 µM in the assay with OVCAR-4 ovarian, more than 50 µM in the assay on SK-MEL-28 melanoma, 22.3 µM in the assay with UACC-257 melanoma and 0.235 µM in the assay with MDA-MB-435.

For `O=c1c2ccccc2nc(-c2ccccc2Cl)n1-c1nnc(C(F)(F)F)s1`, the GI50 with PC-3 prostate was 2.76 µM; in the assay with TK-10 renal, 3.99 µM; with NCI-H522 lung it was 2.43 µM; with LOX IMVI melanoma, 3.37 µM; in the assay with SF-268 CNS, 4.36 µM; with SW-620 colon, 3.4 µM. Also, the results for the GI50 in the assay with OVCAR-4 ovarian, with SK-MEL-28 melanoma and in the assay with MDA-MB-435 were 3.15 µM, 4.63 µM and 3.19 µM, respectively. Besides, the TGI in the assay with PC-3 prostate is 14.1 µM; in the assay with TK-10 renal, 24 µM; in the assay on NCI-H522 lung, 8.25 µM; with LOX IMVI melanoma it was 14.2 µM; in the assay on SF-268 CNS, more than 100 µM; in the assay on SW-620 colon it was 15.9 µM. Besides, the values for the TGI with OVCAR-4 ovarian, in the assay with SK-MEL-28 melanoma and with MDA-MB-435 were more than 100 µM, 90.9 µM and 53.1 µM, respectively.

As to `CCN(CC)CCN1C(=O)C2C3C(=O)CC(C)(CC3C)C2C1=O` (configuration not stated), the GI50 with PC-3 prostate, in the assay with TK-10 renal, in the assay with NCI-H522 lung, in the assay with LOX IMVI melanoma, with SF-268 CNS and with SW-620 colon was more than 100 µM throughout. The GI50 in the assay on OVCAR-4 ovarian, with UACC-257 melanoma and in the assay with MDA-MB-435 was more than 100 µM each time. Further, the TGI in the assay with PC-3 prostate, with TK-10 renal, in the assay with NCI-H522 lung, in the assay on LOX IMVI melanoma, with SF-268 CNS and with SW-620 colon was more than 100 µM in each case. In addition, the TGI in the assay with OVCAR-4 ovarian, in the assay on UACC-257 melanoma and with MDA-MB-435 was more than 100 µM each time.

As for `COc1ccc2nc(-c3ccccc3)cc(Nc3cccc(C(C)=O)c3)c2c1`, the GI50 with PC-3 prostate is 21.5 µM; in the assay with TK-10 renal it was 12.6 µM; in the assay on NCI-H522 lung, 31.6 µM; with SF-268 CNS it was 2.22 µM; with SW-620 colon, 2.7 µM; in the assay on OVCAR-4 ovarian, 7.05 µM. The GI50 with SK-MEL-28 melanoma was 12.4 µM; in the assay on UACC-257 melanoma, 18.3 µM; with MDA-MB-435 it was 4.51 µM. Also, the TGI is 50.6 µM in the assay on PC-3 prostate; 28.5 µM in the assay with TK-10 renal; more than 100 µM in the assay on NCI-H522 lung; 8.61 µM with SF-268 CNS; 15.1 µM in the assay with SW-620 colon; 62.8 µM in the assay with OVCAR-4 ovarian. Also, the TGI in the assay with SK-MEL-28 melanoma worked out at 43.4 µM; with UACC-257 melanoma, 78.7 µM; in the assay with MDA-MB-435 it was 17.1 µM.

As for `O=C(O)c1c(Cl)c(Cl)c(Cl)c(Cl)c1C(=O)Nc1ccc2cn[nH]c2c1`, the TGI with PC-3 prostate, in the assay on TK-10 renal, with NCI-H522 lung, in the assay on SF-268 CNS, in the assay on SW-620 colon and in the assay with OVCAR-4 ovarian was more than 100 µM each time. Also, the TGI with SK-MEL-28 melanoma, in the assay with UACC-257 melanoma and in the assay with MDA-MB-435 was more than 100 µM each time.

For `C/C(=N\n1c(O)c(C#N)cc(C#N)c1=O)c1ccncc1`, the GI50 with PC-3 prostate, in the assay with TK-10 renal, with NCI-H522 lung, in the assay with LOX IMVI melanoma, with SF-268 CNS and in the assay with SW-620 colon was more than 100 µM each time. Besides, the GI50 in the assay on SK-MEL-28 melanoma, with UACC-257 melanoma and with MDA-MB-435 was more than 100 µM in each case. Besides, the TGI with PC-3 prostate, in the assay with TK-10 renal, with NCI-H522 lung, with LOX IMVI melanoma, in the assay on SF-268 CNS and in the assay on SW-620 colon was more than 100 µM in each case. Besides, the TGI in the assay on SK-MEL-28 melanoma, in the assay with UACC-257 melanoma and with MDA-MB-435 was more than 100 µM in each case.

Take `O=C1c2cccnc2C(=O)c2c1c(C(=O)NCCn1ccnc1)c1ccccn21`: the GI50 in the assay on PC-3 prostate was 3.33 µM; in the assay on NCI-H522 lung it was 1.82 µM; in the assay with LOX IMVI melanoma, 1.59 µM; in the assay with SF-268 CNS, 2.86 µM; in the assay on SW-620 colon, 2.55 µM; in the assay with OVCAR-4 ovarian, 1.62 µM. Further, the values for the GI50 with SK-MEL-28 melanoma, with UACC-257 melanoma and in the assay on MDA-MB-435 were 4.66 µM, 2.06 µM and 1.71 µM, respectively. The TGI in the assay with PC-3 prostate was determined as 15.2 µM; in the assay on NCI-H522 lung it was 4.67 µM; in the assay with LOX IMVI melanoma, 5.54 µM; in the assay on SF-268 CNS, 16.8 µM; in the assay on SW-620 colon it was 11.1 µM; with OVCAR-4 ovarian, 3.95 µM. Moreover, the results for the TGI in the assay with SK-MEL-28 melanoma, in the assay with UACC-257 melanoma and in the assay on MDA-MB-435 were 20.7 µM, 3.93 µM and 3.13 µM, respectively.

For `CCCCCC[C@@H](C)Nc1nc2ccccc2c2occc12`, the GI50 in the assay with PC-3 prostate is 22.9 µM; with TK-10 renal it was 10 µM; in the assay on NCI-H522 lung it was 1.83 µM; in the assay on LOX IMVI melanoma, 13.9 µM; in the assay with SF-268 CNS, 14.7 µM; with SW-620 colon, 11.2 µM. Also, the GI50 was 18.5 µM in the assay with SK-MEL-28 melanoma, 4.67 µM with UACC-257 melanoma and 15.5 µM in the assay with MDA-MB-435. Further, the TGI stood at 71.6 µM in the assay with PC-3 prostate; 23.6 µM with TK-10 renal; 13.3 µM with NCI-H522 lung; 26.9 µM in the assay with LOX IMVI melanoma; 38.7 µM in the assay on SF-268 CNS; 26.5 µM in the assay on SW-620 colon. Also, the TGI with SK-MEL-28 melanoma worked out at 36.5 µM; in the assay with UACC-257 melanoma, 24 µM; in the assay on MDA-MB-435, 40.2 µM.
